# From patent publication US20250163119A1, “COMPOUNDS FOR THE TREATMENT OF DIABETES OR OBESITY” (Eli Lilly and Company, priority 2023, published 2025)
# *1 amine or outer side, *2 acyl side, *3 side chain or, on linkers, in order; H or OH if unused. Bridges are numbered along the chain shown (N, C = ends). Roman numbers before positions name the chains, in order. Side-chain parts run from the residue outwards. [ ]: non-standard residue; d: D form. The star is where a group is joined. C20 diacid = O=C(O)CCCCCCCCCCCCCCCCCCC(=O)*; C18 diacid = O=C(O)CCCCCCCCCCCCCCCCC(=O)*; γGlu = O=C(O)[C@H](CCC(=O)[*:2])N[*:1]; εLys = N[C@@H](CCCCN[*:1])C(=O)[*:2]; pGlu = O=C1CC[C@@H](C(=O)O)N1; αMeL = CC(C)C[C@](C)(N)C(=O)O; AEEA = NCCOCCOCC(=O)O; Aib = CC(C)(N)C(=O)O
# How the values were obtained:
# human CRHR2 = biological target: T1, human CRHR2 (Homo sapiens, UniProt Q13324); assay: Human CRHR2 cAMP assay (HTRF) in HEK293 cells stably expressing human CRHR2; format: cell-based; conditions: HEK293 cells overexpressing human CRHR2; relative EC50, maximum 10 nM human UCN2; mean ± SE; read-out: hCRHR2 cAMP EC50 (pM, ± SE)
# T1 construct: expressed in transfected cells
# T1 sequence (Q13324 1-438 isoform Q13324-2): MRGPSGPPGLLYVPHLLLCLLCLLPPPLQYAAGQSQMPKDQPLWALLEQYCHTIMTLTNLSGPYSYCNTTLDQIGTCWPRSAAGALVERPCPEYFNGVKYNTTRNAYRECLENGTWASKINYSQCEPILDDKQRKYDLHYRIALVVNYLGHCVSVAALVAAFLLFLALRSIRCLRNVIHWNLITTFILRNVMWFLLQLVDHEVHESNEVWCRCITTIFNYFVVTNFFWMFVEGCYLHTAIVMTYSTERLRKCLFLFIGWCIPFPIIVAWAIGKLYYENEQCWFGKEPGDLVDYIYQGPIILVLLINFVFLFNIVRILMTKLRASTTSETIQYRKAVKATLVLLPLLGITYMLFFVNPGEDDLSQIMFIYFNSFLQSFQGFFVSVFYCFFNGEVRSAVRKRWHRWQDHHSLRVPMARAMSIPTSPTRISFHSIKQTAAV
# Method in brief: (§1)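 Gs-coupled receptor activation was followed as intracellular cAMP in stably transfected HEK293 cells, 25,000 (CRHR1) or 5,000 (CRHR2) per well, with 0.25 mM IBMX present. Stimulation lasted 1 h at 37° C for CRHR1 and 30 min at room temperature for CRHR2.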
# human CRHR1 = biological target: T2, human CRHR1 (Homo sapiens, UniProt P34998); assay: Human CRHR1 cAMP assay (HTRF) in HEK293 cells stably expressing human CRHR1; format: cell-based; conditions: HEK293 cells overexpressing human CRHR1; relative EC50, maximum 66 nM human UCN1; mean ± SE; read-out: hCRHR1 cAMP EC50 (pM, ± SE)
# T2 construct: expressed in transfected cells
# T2 sequence (P34998 24-415): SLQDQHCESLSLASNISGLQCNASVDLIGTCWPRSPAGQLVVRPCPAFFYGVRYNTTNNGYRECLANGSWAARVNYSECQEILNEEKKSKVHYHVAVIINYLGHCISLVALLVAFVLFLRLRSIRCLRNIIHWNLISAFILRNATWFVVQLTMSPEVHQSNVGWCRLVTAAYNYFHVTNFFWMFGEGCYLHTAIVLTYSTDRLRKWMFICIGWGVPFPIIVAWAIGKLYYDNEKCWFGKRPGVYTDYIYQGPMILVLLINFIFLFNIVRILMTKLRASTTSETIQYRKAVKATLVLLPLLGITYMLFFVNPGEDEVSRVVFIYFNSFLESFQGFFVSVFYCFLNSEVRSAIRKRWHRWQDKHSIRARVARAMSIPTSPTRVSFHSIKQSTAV
# Method in brief: as §1
Substance,EC50 (human CRHR2) [pM],EC50 (human CRHR1) [pM]
"I: Ac-GSPSIVTS[αMeL]DVPT[Aib][αMeL]LQKILEQERAEKARQQAKEAAEILAQV-NH2 / II: {C20 diacid}-EPEPEP[γGlu] (amide I:33-II:C) [SEQ ID NO: 16, Ac-GSPSIVTS αMeL DVPT Aib αMeL LQKILEQERAEKARQQAK(γE-PEPEPE-CO-(CH2)18-CO2H)EAAEILAQV-NH2]",12.5 ± 1.1,> 1e+07
"[pGlu]GSPSGIVTS[αMeL]DVPT[Aib][αMeL]LQKILEQERAEKARQQAK([γGlu-AEEA-εLys-C18 diacid])EAAEILAQV-NH2 [SEQ ID NO: 24, Pyr-GSPSGIVTS αMeL DVPT Aib αMeL LQKILEQERAEKARQQAK(γE-(2-[2-(2-Amino-ethoxy)-ethoxy]-acetyl)-ϵK-CO-(CH2)16-CO2H)EAAEILAQV-NH2]",21.7 ± 3.6,> 1e+07
[pGlu]GSPSGIVTS[αMeL]DVPT[Aib][αMeL]LQKILEQERAEKARQQAKEAAEILAQV-NH2 [SEQ ID NO: 23],28.9 ± 1.2,> 1e+07
{C18 diacid-εLys-AEEA-γGlu}-GSPSIVTS[αMeL]DVPT[Aib][αMeL]LQKILEQERAEKARQQATEAAEILAQV-NH2 [SEQ ID NO: 28],12.8 ± 2,> 1e+07

# Now those with a lower EC50 (human CRHR2), led by results:
EC50 (human CRHR2) [pM],EC50 (human CRHR1) [pM],Substance
11.3 ± 0.4,> 1e+07,"I: Ac-GSPSIVTS[αMeL]DVPT[Aib][αMeL]LQKILEQERAEKARQQAKEAAEILAQV-NH2 / II: {C20 diacid}-PPPPPP[γGlu] (amide I:33-II:C) [SEQ ID NO: 15, Ac-GSPSIVTS αMeL DVPT Aib αMeL LQKILEQERAEKARQQAK(γE-PPPPPP-CO-(CH2)18-CO2H)EAAEILAQV-NH2]"
6.9 ± 0.7,> 1e+07,{C20 diacid}-K[AEEA][γGlu]GSPSIVTS[αMeL]DVPT[Aib][αMeL]LQKILEQERAEKARQQATEAAEILAQV-NH2 [SEQ ID NO: 26]
